In experiment [1] the test system is Human immunodeficiency virus 1. Kind of experiment: Antiviral activity against wild type HIV1 3B infected in human MT4 LTR-EGFP cells by EGFP reporter gene assay. The experiment is classed as functional, organism-based. As to conditions: Human immunodeficiency virus 1, 3B.
The target in a further experiment is Cytochrome P450 3A4 (Homo sapiens, UniProt P08684). Briefly: Inhibition of CYP3A4 in human liver microsomes using midazolam as substrate after 10 mins by LC/MS/MS analysis. (Microsomes from liver hold many membrane-bound enzymes, among them those of drug oxidation.)
Chain of Cytochrome P450 3A4 (P08684 whole entry): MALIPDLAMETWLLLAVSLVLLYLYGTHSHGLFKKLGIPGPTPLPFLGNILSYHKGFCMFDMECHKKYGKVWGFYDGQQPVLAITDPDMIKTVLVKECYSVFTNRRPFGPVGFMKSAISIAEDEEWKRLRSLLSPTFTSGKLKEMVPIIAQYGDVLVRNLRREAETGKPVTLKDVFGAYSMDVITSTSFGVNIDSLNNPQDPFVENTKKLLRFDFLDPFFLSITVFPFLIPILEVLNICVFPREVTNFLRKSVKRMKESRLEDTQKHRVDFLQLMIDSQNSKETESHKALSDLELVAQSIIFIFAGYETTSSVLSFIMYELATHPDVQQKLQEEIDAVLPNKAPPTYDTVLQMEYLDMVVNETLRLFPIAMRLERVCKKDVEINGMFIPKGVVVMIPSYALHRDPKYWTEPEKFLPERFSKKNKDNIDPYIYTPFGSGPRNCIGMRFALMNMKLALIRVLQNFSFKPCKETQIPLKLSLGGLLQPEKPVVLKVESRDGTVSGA

Data on 40 compounds can be found in ChEMBL document CHEMBL2057069, “Benzoxazole and benzothiazole amides as novel pharmacokinetic enhancers of HIV protease inhibitors” (Bioorg Med Chem Lett, 2012).

By EC50 is commonly meant the concentration needed to bring the measured effect to its halfway point. High values mean weaker potency, low ones greater potency. As usually defined, the IC50 is the concentration that gives 50% inhibition. Read a high IC50 as weaker potency in that assay.

As to `CC(C)CN(C[C@H](O)[C@H](Cc1ccccc1)NC(=O)OCc1cncs1)C(=O)c1ccc2nc(N3CCCC3)oc2c1`, a half-maximal response in experiment [1] (EC50) required 45 µM. In other words, the double-digit micromolar range.
Still for that read-out and setting: the result for `CC(C)CN(C[C@@H](O)[C@H](Cc1ccccc1)NC(=O)OCc1cncs1)C(=O)c1ccc2nc(N3CCCCC3)oc2c1` reads 36 µM; that for `C#CCN(C[C@@H](O)[C@H](Cc1ccccc1)NC(=O)OCc1cncs1)C(=O)c1ccc2nc(N(C)CC)oc2c1`, 60 µM.
In experiment [1], `CC(C)CN(C[C@@H](O)[C@H](Cc1ccccc1)NC(=O)OCc1cncs1)C(=O)c1ccc2nc(C(C)C)oc2c1` yielded an EC50 of 45 µM. Also, the IC50 at Cytochrome P450 3A4 amounted to 0.037 µM.
`CCN(C[C@@H](O)[C@H](Cc1ccccc1)NC(=O)OCc1cncs1)C(=O)c1ccc2nc(N3CCCC3)oc2c1` showed an EC50 in experiment [1] of 69 µM. The compound further came in with an IC50 against Cytochrome P450 3A4 of 0.06 µM.
In experiment [1], `O=C(N[C@@H](Cc1ccccc1)[C@H](O)CN(CC1CCC(F)(F)CC1)C(=O)c1ccc2nc(N3CCCC3)oc2c1)OCc1cncs1` returned an EC50 of 30 µM. On Cytochrome P450 3A4, this compound had an IC50 of 0.03 µM.
As to `O=C(N[C@@H](Cc1ccccc1)[C@H](O)CN(CCN1CCOCC1)C(=O)c1ccc2nc(N3CCCC3)oc2c1)OCc1cncs1`, in experiment [1], the EC50 is > 100 µM. Moreover, at Cytochrome P450 3A4, 0.12 µM corresponded to half-maximal inhibition (IC50).
For the compound `CC(C)CN(C[C@@H](O)[C@H](Cc1ccccc1)NC(=O)OCc1cncs1)C(=O)c1ccc2nc(N3CCN(C)CC3)oc2c1`, the EC50 in experiment [1] is > 100 µM. Also, it took 0.092 µM to reach half-maximal inhibition against Cytochrome P450 3A4 (IC50).
Turning to `C#CCN(C)c1nc2ccc(C(=O)N(CC(C)C)C[C@@H](O)[C@H](Cc3ccccc3)NC(=O)OCc3cncs3)cc2o1`, in experiment [1], the EC50 stood at 48 µM. The same compound registered an IC50 against Cytochrome P450 3A4 of 0.03 µM.
Compound `O=C(N[C@@H](Cc1ccccc1)[C@H](O)CN(CC1CCCCC1)C(=O)c1ccc2nc(N3CCCC3)oc2c1)OCc1cncs1` returned an EC50 in experiment [1] of 28 µM. In addition, the IC50 on Cytochrome P450 3A4 came to 0.026 µM.
Turning to `CC(C)CN(C[C@@H](O)[C@H](Cc1ccccc1)NC(=O)OCc1cncs1)C(=O)c1ccc2nc(NC3CCN(C)CC3)oc2c1`, the EC50 in experiment [1] is > 100 µM. The compound also had a 50% inhibitory concentration (IC50) against Cytochrome P450 3A4 of 2.7 µM.
In the same order, the values of `CCN(C)c1nc2ccc(C(=O)N(CC(C)C)C[C@@H](O)[C@H](Cc3ccccc3)NC(=O)OCc3ccncc3)cc2o1` are 49 µM and 0.2 µM.
The corresponding values for `CCN(C)c1nc2ccc(C(=O)N(CC(C)C)CC(O)[C@H](Cc3cccnc3)NC(=O)OCc3cncs3)cc2o1` (single isomer, unassigned) are > 100 µM and 0.069 µM.
On to `CCN(C)c1nc2ccc(C(=O)N(CC(C)C)C[C@H](O)[C@H](Cc3ccccc3)NC(=O)OCc3cncs3)cc2o1`, for which, in experiment [1], the EC50 turned out to be 45 µM.
In the case of `CC(C)(C)CN(C[C@@H](O)[C@H](Cc1ccccc1)NC(=O)OCc1cncs1)C(=O)c1ccc2nc(N3CCCC3)oc2c1`, the EC50 in experiment [1] worked out at 30 µM. Besides, the IC50 at Cytochrome P450 3A4 came to 0.027 µM.
On to `CCN(C)c1nc2ccc(C(=O)N(C[C@@H](O)[C@H](Cc3ccccc3)NC(=O)OCc3cncs3)CC(C)(C)C)cc2o1`, for which the EC50 in experiment [1] stood at 48 µM. In addition, half-maximal inhibition against Cytochrome P450 3A4 (IC50) was put at 0.037 µM.
The compound `CCN(C)c1nc2ccc(C(=O)N(CC3CCCCC3)C[C@@H](O)[C@H](Cc3ccccc3)NC(=O)OCc3cncs3)cc2o1` displayed an EC50 in experiment [1] of 21 µM. The compound also gave an IC50 against Cytochrome P450 3A4 of 0.026 µM.
With `Cc1nc2ccc(C(=O)N(CC(C)C)C[C@@H](O)[C@H](Cc3ccccc3)NC(=O)OCc3cncs3)cc2o1`, the 50% effective concentration (EC50) in experiment [1] is > 100 µM. The compound also showed an IC50 against Cytochrome P450 3A4 of 0.052 µM.
The corresponding values for `CCN(C)c1nc2ccc(C(=O)N(CC(C)C)C[C@@H](O)[C@H](Cc3ccccc3)NC(=O)OCc3cccnc3)cc2o1` are 48 µM and 0.022 µM.
Consider `CC(C)CN(C[C@@H](O)[C@H](Cc1ccccc1)NC(=O)OCc1cncs1)C(=O)c1ccc2nc(-c3ccncc3)oc2c1`, for which the EC50 in experiment [1] was > 100 µM. For the same compound, the IC50 against Cytochrome P450 3A4 is 0.024 µM.
In the same order, the values of `O=C(N[C@@H](Cc1ccccc1)[C@H](O)CN(CCN1CCCC1)C(=O)c1ccc2nc(N3CCCC3)oc2c1)OCc1cncs1` are 58 µM and 0.13 µM.
Consider `CN(C[C@@H](O)[C@H](Cc1ccccc1)NC(=O)OCc1cncs1)C(=O)c1ccc2nc(N3CCCC3)oc2c1`, for which the EC50 in experiment [1] was > 100 µM. For the same compound, the 50% inhibitory concentration (IC50) at Cytochrome P450 3A4 is 0.084 µM.
As for `CCN(C[C@@H](O)[C@H](Cc1ccccc1)NC(=O)OCc1cncs1)C(=O)c1ccc2nc(N(C)CC)oc2c1`, in experiment [1], the EC50 is > 100 µM. This compound also came in with an IC50 against Cytochrome P450 3A4 of 0.079 µM.
With `CC(C)CN(C[C@@H](O)[C@H](Cc1ccccc1)NC(=O)OCc1cncs1)C(=O)c1ccc2nc(N3CCCC3)oc2c1`, the EC50 in experiment [1] was > 100 µM. Also, the IC50 against Cytochrome P450 3A4 turned out to be 0.033 µM.
As for `CC(C)CN(C[C@@H](O)[C@H](Cc1ccccc1)NC(=O)OCc1cncs1)C(=O)c1ccc2nc(NCCCn3ccnc3)oc2c1`, the EC50 in experiment [1] was 87 µM.
With `CC(C)c1nc(CN(C)C(=O)N[C@H](C(=O)N[C@@H](Cc2ccccc2)C[C@H](O)[C@H](Cc2ccccc2)NC(=O)OCc2cncs2)C(C)C)cs1` [RITONAVIR], in experiment [1], the EC50 was determined as 0.0015 µM. This EC50 is about 58000-fold lower than that of the compound before.
As for `CCN(C)c1nc2ccc(C(=O)N(CCN(C)C)C[C@@H](O)[C@H](Cc3ccccc3)NC(=O)OCc3cncs3)cc2o1`, the EC50 in experiment [1] is > 100 µM.
In turn, `CC(C)CN(C[C@@H](O)[C@H](Cc1ccccc1)NC(=O)OCc1cncs1)C(=O)c1ccc2nc(N(C)C)oc2c1` came in with an EC50 in experiment [1] of 47 µM.
Regarding `CC(C)CN(C[C@@H](O)[C@H](Cc1cccnc1)NC(=O)OCc1cncs1)C(=O)c1ccc2ncsc2c1`, the EC50 in experiment [1] was > 100 µM. Moreover, on Cytochrome P450 3A4, it took 0.09 µM to reach half-maximal inhibition (IC50).
On to `CCN(C)c1nc2ccc(C(=O)N(CCN3CCOCC3)C[C@@H](O)[C@H](Cc3ccccc3)NC(=O)OCc3cncs3)cc2o1`, for which the EC50 in experiment [1] is > 100 µM. In addition, inhibition on Cytochrome P450 3A4 was half-maximal at 0.14 µM (IC50).
Consider `CC(C)CN(C[C@@H](O)[C@H](Cc1ccccc1)NC(=O)OCc1cncs1)C(=O)c1ccc2nc(N(C)CCN(C)C)oc2c1`, for which the EC50 in experiment [1] turned out to be 63 µM.
For `CC(C)CN(C[C@@H](O)[C@H](Cc1ccccc1)NC(=O)OCc1cncs1)C(=O)c1ccc2ncoc2c1`, the EC50 in experiment [1] is > 100 µM. On Cytochrome P450 3A4, this compound displayed an IC50 of 0.055 µM.
For `CC(C)CN(C[C@@H](O)[C@H](Cc1ccccc1)NC(=O)OCc1cncs1)C(=O)c1ccc2nc(N)oc2c1`, the EC50 in experiment [1] was > 100 µM. In addition, half-maximal inhibition against Cytochrome P450 3A4 (IC50) required 0.042 µM.
For the compound `CC(C)CN(C[C@@H](O)[C@H](Cc1ccccc1)NC(=O)OCc1cncs1)C(=O)c1ccc2nc(NCCN(C)C)oc2c1`, the EC50 in experiment [1] is > 100 µM. Moreover, half-maximal inhibition at Cytochrome P450 3A4 (IC50) required 0.2 µM.
The corresponding values for `CCc1nc2ccc(C(=O)N(CC(C)C)C[C@@H](O)[C@H](Cc3ccccc3)NC(=O)OCc3cncs3)cc2o1` are 87 µM and 0.039 µM.
In the case of `CC(C)CN(C[C@@H](O)[C@H](Cc1ccccc1)NC(=O)OCc1cncs1)C(=O)c1ccc2nc(N3CCOCC3)oc2c1`, the concentration for a half-maximal effect (EC50) in experiment [1] was > 100 µM. Further, the IC50 against Cytochrome P450 3A4 was determined as 0.038 µM.
In turn, `CCNc1nc2ccc(C(=O)N(CC(C)C)C[C@@H](O)[C@H](Cc3ccccc3)NC(=O)OCc3cncs3)cc2o1` gave an EC50 in experiment [1] of 85 µM. At Cytochrome P450 3A4, this compound yielded an IC50 of 0.028 µM.
Take `CCN(C)c1nc2ccc(C(=O)N(CC(C)C)C[C@@H](O)[C@H](Cc3ccccc3)NC(=O)OCc3ccc4c(c3)OCO4)cc2o1`: the EC50 in experiment [1] is 16 µM.
`CC(C)(O)CN(C[C@@H](O)[C@H](Cc1ccccc1)NC(=O)OCc1cncs1)C(=O)c1ccc2nc(N3CCCC3)oc2c1`: the EC50 in experiment [1] is > 100 µM.
Take `CCNc1nc2ccc(C(=O)N(C[C@@H](O)[C@H](Cc3ccccc3)NC(=O)OCc3cncs3)CC(C)(C)O)cc2o1`: the EC50 in experiment [1] is > 100 µM.
